Test results published in patent US12234299B2, “Peptides for inducing bacteriocin synthesis and methods to identify and/or select and/or optimize the same” (SYNGULON S.A., priority 2018, dated 2025).

What was measured:
Candida species = details: Shekh and Roy (2012); cited from earlier work
[1] = tested on: bacteriocin gene promoters (salivaricin promoters); test: Luciferase (luxAB) activity of bacteriocin gene (salivaricin) promoters; assay type: cell-based, Streptococcus salivarius HSISS4; details: 1 μM; FIG. 7
Method: (§1) Overnight precultures were diluted at a final OD600 of 0.05. A volume of 300 μl of culture samples was incubated in the wells of a sterile covered white microplate with a transparent bottom (Greiner, Alphen a/d Rijn, The Netherlands) for 75 min at 37° C. and then supplemented with synthetic peptides (1 μM, except if otherwise stated) or DMSO, and xylose where required. Growth (OD600) and luciferase (Lux) activity (expressed in relative light units) was monitored at 10 min intervals during 24 h in a multi-wells plate reader (Hidex Sense, Hidex, Turku, Finland) as previously described (Fontaine et al., 2013).

[2] = tested on: sptA promoter (PsptA), ScuR/SarF system; test: Luciferase (luxAB) promoter activity of PsptA with exogenous synthetic peptides; assay type: cell-based, Streptococcus salivarius HSISS4; details: for Maximal activity of PsptA exposed to sBI7 mutant peptides, low concentration: 0.001 μM (1 nM) peptide, FIG. 3C; for Maximal activity of PsptA exposed to sBI7 mutant peptides, high concentration: 1 μM peptide, FIG. 3E
Method: as §1

[3] = tested on: fungal microbial organism; details: literature; cited from earlier work
ScuR = test: Mobility shift assay (EMSA) of promoter probes with purified ScuR and synthetic peptide; assay type: binding, Streptococcus salivarius; details: ScuR 4 μM; peptide 2:2 dilutions from 20 μM; FIG. 10B
Method: All double-stranded DNA fragments (30 or 40 bp) were obtained from annealing of single-stranded Cy3-labelled (at 5′ end) and unlabeled oligonucleotides. Typically, a gel shift reaction (20 μl) was performed in a binding buffer (20 mM Tris-HCl pH 8.0, 150 mM NaCl, 1 mM EDTA, 1 mM DTT, 10% glycerol, 1 mg ml-1 BSA) and contained 150 ng labelled probe and […] StrepTag proteins. When necessary, […] of ComS peptides (unless otherwise stated) are added. The reaction is incubated at 37° C. for 10 min prior to loading of the samples on a native TBE 5% gel. The gel is next subjected to 80 V for approximately 1 h in TBE buffer. DNA complexes were detected by fluorescence on the Ettan DIGE Imager with bandpass excitation filters (nm): 540/25 (Cy3) or 635/30 (Cy5) and bandpass emission filters: 595/25 (Cy3) or 680/30 (Cy5) (GE Healthcare, Waukesha, WI).
The PCR-amplified scuR-StrepTag and gene sarF-StrepTag were cloned into the pBAD-comR-ST vector (see supplemental information). The ComR-StrepTag, ScuR-StrepTag and SarF-StrepTag recombinant proteins were overproduced in E. coli and purified as previously described (Fontaine et al., 2013) in standard native conditions on Strep-Tactin agarose beads (IBA).

sptA promoter (PsptA) = test: PsptA-luxAB activity with xylose-induced intracellularly expressed peptides; assay type: cell-based, Streptococcus salivarius
Description: (§2) To generate the two DNA libraries encoding randomized sequence of small peptides, we performed overlapping PCRs to graft fragments encompassing the follow features: (1) a 5′ recombination arm (for the ectopic tRNA^ser locus); (2) the xylR gene that codes for the xylose responsive regulator; (3) either Pxyl1 (library I) or Pxyl2 (library II) translationally-fused to a 12 codon long gene, for which the last 7 are randomized; (4) the spec gene; (5) a 3′ recombination arm (for the ectopic tRNA^ser locus). To obtain the randomized DNA stretch, we used a 78 nucleotide long primer degenerated on 21 contiguous positions. Next, we transformed these two libraries in strains containing the sptA promoter translationally-fused to the cat gene (chloramphenicol resistance) in which the associated spec gene was excised by the previously described cre-lox method. The initial background of these strains were either a comR-overexpressing (Pxyl1-comR) or a salivaricin-deprived (Δslv5) strain. We plated transformed cells on solid medium supplemented with xylose (either 0.1 or 1%), chloramphenicol ([…]) and spectinomycin ([…]) and grew overnight. We restreaked single colonies on fresh chloramphenicol and spectinomycin solid medium supplemented or not with xylose.
as §1

[4] = tested on: sptA promoter (PsptA) fused to cat, ScuR/SarF; test: Randomized peptide screen (PsptA-cat, chloramphenicol resistance on xylose); assay type: cell-based, Streptococcus salivarius; details: xylose 0.1 or 1%; PsptA-cat reporter
Description: as §2

[5] = tested on: pathogenic Gram-positive and Gram-negative bacteria; details: Acuna et al. (2012); cited from earlier work

WLPPAGLLGRCGRWFRPWLLWLQ SGAQY KWLGNLFGLGPK (WLPPAGLLGRCGRWFRPWLLWLQSGAQYKWLGNLFGLGPK; Enterococcus faecalis peptide)
neutralizing activity against Candida species (Candida species): neutralizing activity against Candida species

sBI7^W→F: sBI7 variant, ultra-conserved tryptophan substituted by phenylalanine (LPFFLILG)
Maximal activity of salivaricin (bacteriocin gene) promoters exposed to mutant peptides [1]: low to high activation disability | Maximal activity of PsptA exposed to sBI7 mutant peptides, low concentration [2]: neither alanine (sBI7^W→A) nor phenylalanine (sBI7^W→F) variants sustains luciferase transcription | Maximal activity of PsptA exposed to sBI7 mutant peptides, high concentration [2]: activate Pcat at a similar range than the WT sBI7 peptide

botrycidin AJ1316
antifungal activities [3]: antifungal activities

LAFWDSLG [Leu-Ala-Phe-Trp-Asp-Ser-Leu-Gly]
ScuR binding to PsptA probe (ScuR): more intense | induction of the sptA promoter in vivo ([2]; 1 μM, FIG. 10A): able to induce the sptA promoter in vivo

MIAILPFWLILG [BI7, genome-encoded screen peptide]
xylose-driven PsptA activity in comR or sarF deletion backgrounds (sptA promoter (PsptA); 0.1% xylose, FIG. 2D): neither comR nor sarF deletion has a dramatic effect | xylose-driven PsptA activity in scuR deletion background (sptA promoter (PsptA); 0.1% xylose, FIG. 2D): annihilates both xylose induction and basal leaky expression

sBI7^G→A: sBI7 variant, C-terminal glycine substituted by alanine (LPFWLILA)
Maximal activity of salivaricin (bacteriocin gene) promoters exposed to mutant peptides [1]: low to high activation disability | Maximal activity of PsptA exposed to sBI7 mutant peptides, low concentration [2]: decreases the PsptA response | Maximal activity of PsptA exposed to sBI7 mutant peptides, high concentration [2]: activate Pcat at a similar range than the WT sBI7 peptide

sBI7^W→A: sBI7 variant, ultra-conserved tryptophan substituted by alanine (LPFALILG)
Maximal activity of salivaricin (bacteriocin gene) promoters exposed to mutant peptides [1]: total inefficacy | Maximal activity of PsptA exposed to sBI7 mutant peptides, low concentration [2]: neither alanine (sBI7^W→A) nor phenylalanine (sBI7^W→F) variants sustains luciferase transcription

MIAILRPH [BM1, irrelevant genome-encoded peptide, negative control clone, reference compound]
potentiation of PsptA-luxAB promoter activity by xylose addition (sptA promoter (PsptA); xylose 0.1% or 1% vs mock, FIG. 2B): no effect | growth on chloramphenicol with vs without xylose [4]: xylose-independent growth

LAFWDSLGLLL [LAFWDSLG with a triple leucine extension at the C-terminus (precursor peptide)]
ScuR binding to PsptA probe (ScuR): requires extreme concentration | induction of the sptA promoter in vivo ([2]; 1 μM, FIG. 10A): able to induce the sptA promoter in vivo | PsptA induction of the longer peptide relative to the shorter one ([2]; 1 μM, induction magnitude comparable to sBI7, FIG. 10A): much more active at 1 μM concentration than the shorter one

B1: Ent35-MccV: hybrid bacteriocin: N-terminal glycine, Enterocin CRL35, a linker comprising three glycines, and a C-terminal Microcin V (protein)
chain: GKYYGNGVSCNKKGCSVDWGRAIGIIGNNSAANLATGGAAGWKSGGGASGRDIAMAIGTLSGQFVAGGIGAAAGGVAGGAIYDYASTHKPNPAMSPSGLGGTIKQKPEGIPSEAWNYAAGRLCNWSPNNLSDVCL
modifications: Hybrid bacteriocin Ent35-MccV
notes: hybrid bacteriocin: N-terminal glycine, Enterocin CRL35, a linker comprising three glycines, and a C-terminal Microcin V
antimicrobial activity [5]: displays antimicrobial activity against pathogenic Gram-positive and Gram-negative bacteria
